In brackets after ≈: the same amount, converted by molar mass.
Experiment: physchem
Details: for % Drug Solubilized: pH 3.9; for Sw/So: pH 4; for solubility: water
Protocol: The heterogeneous mixture was mixed well before carefully adjusting the pH with 0.1 N NaOH until the CA dissolved giving a clear solution. […] Four independent aqueous CA solutions were prepared by this process. […] The ethanol solution of each drug was then added slowly to the aqueous CA solutions previously prepared.
All of the samples were filtered thru 0.45 micron syringe filters before measurement. […] Solutions of each of the oxidized CA:drug mixtures were also prepared in 50/50 ethanol/Millipore water. […] All samples were immediately analyzed for the amount of drug in the solution using an UV-Vis Spectrophotometer.

Row | SMILES | Sw (amount of drug solubilized) | % Drug Solubilized | Sw/So | solubility
1 | N#Cc1ccc(C(c2ccc(C#N)cc2)n2cncn2)cc1 [letrozole] | 0.1461 g/L/25 g of drug:CAOX | 7% | 1.2 | 120 µg/mL (≈ 421 µM)
2 | CC(C)(C#N)c1cc(Cn2cncn2)cc(C(C)(C)C#N)c1 [anastrozole] | 1.2481 g/L/25 g of drug:CAOX | 90% | 1.9 | 650 µg/mL (≈ 2220 µM)

Reference: patent US9150665B2, “Cellulose interpolymers and method of oxidation” (Eastman Chemical Company, priority 2003, dated 2015)
